Measured values from patent US12509452B2, “Substituted-isoxazoline-containing aromatic compound, preparation method therefor, herbicidal composition and use thereof” (QINGDAO KINGAGROOT CHEMICAL COMPOUND CO., LTD., priority 2019, dated 2025).

Key:
Assay in all cases: weeding effect in post-emergence stage
Type in all cases: in vivo
Conyza japonica = tested on: Conyza japonica
Source text: (§1) The activity level criteria for plant damage (i.e., growth control rate) are as follows: • Level 5: growth control rate is above 85%; • Level 4: growth control rate is greater than or equal to 60% and less than 85%; • Level 3: growth control rate is greater than or equal to 40% and less than 60%; • Level 2: growth control rate is greater than or equal to 20% and less than 40%; • Level 1: growth control rate is greater than or equal to 5% and less than 20%; • Level 0: growth control rate is less than 5%.
(§2) The above growth control rates are fresh weight control rates.
(§3) Experiment on weeding effect in post-emergence stage:
(§4) Monocotyledonous and dicotyledonous weed seeds (Descurainia sophia, Capsella bursa-pastoris, Abutilon theophrasti, Galium aparine, Stellaria media, Lithospermum arvense, Rorippa indica, Alopecurus aequalis, Alopecurus japonicus, Beckmannia syzigachne, Sclerochloa dura, Conyza Canadensis, Phleum paniculatum, Veronica didyma Tenore, Bromus japonicus, Aegilops tauschii, Phalaris arundinacea, Amaranthus retroflexus, Chenopodium album, Commelina communis, Sonchus arvensis, Convolvulus arvensis, Cirsium setosum, Solanum nigrum, Acalypha australis, Digitaria sanguinalis, Echinochloa crusgalli, Setaria viridis, Setaria glauca, Leptochloa chinensis, Monochoria vaginalis, Sagittaria trifolia, Scirpus juncoides, Cyperus rotundus, Cyperus iria, Cyperus difformis, Fimbristylis, Portulaca oleracea, Xanthium sibiricum, Pharbitis nil, Conyza japonica, etc.) and major crop seeds (wheat, corn, rice, soybean, cotton, oilseed rape, millet, sorghum, potato, sesame, ricinus, etc.) were placed in plastic pots filled with soil, then covered with 0.5-2 cm of soil, allowed to grow in a good greenhouse environment. After 2 weeks of sowing, the test plants were treated in the 2-3 leaf stage. The tested compounds of the present invention were respectively dissolved in acetone, then added with Tween 80 and 1.5 liter/ha of emulsifiable concentrate of methyl oleate as synergist, diluted with a certain amount of water to obtain a solution with a certain concentration, and sprayed with a spray tower onto the plants. After the application, the plants were cultured for 3 weeks in the greenhouse, and then the experimental results of the weeding were counted. The doses of the used compounds were 500, 250, 125, 60, 15, 7.5 g a.i./ha, and the averages were obtained by repeating for three times.

Alopecurus japonicus = tested on: Alopecurus japonicus
Source text: as §1, §2, §3, §4

Beckmannia syzigachne = tested on: Beckmannia syzigachne
Source text: as §1, §2, §3, §4

Rorippa indica = tested on: Rorippa indica
Source text: as §1, §2, §3, §4

Row | SMILES | weeding effect in post-emergence stage, Conyza japonica (activity level) (Conyza japonica; dose 125 g a.i./ha) | weeding effect in post-emergence stage, Alopecurus japonicus (activity level) (Alopecurus japonicus; dose 125 g a.i./ha) | weeding effect in post-emergence stage, Beckmannia syzigachne (activity level) (Beckmannia syzigachne; dose 125 g a.i./ha) | weeding effect in post-emergence stage, Rorippa indica (activity level) (Rorippa indica; dose 125 g a.i./ha) | weeding effect in post-emergence stage, Rorippa indica (activity level) (Rorippa indica; dose 15 g a.i./ha) | weeding effect in post-emergence stage, Conyza japonica (activity level) (Conyza japonica; dose 15 g a.i./ha) | weeding effect in post-emergence stage, Alopecurus japonicus (activity level) (Alopecurus japonicus; dose 15 g a.i./ha) | weeding effect in post-emergence stage, Beckmannia syzigachne (activity level) (Beckmannia syzigachne; dose 15 g a.i./ha)
1 | CCOC(=O)C1(C2CCC2)CC(c2cc(-n3c(=O)cc(C(F)(F)F)n(C)c3=O)c(F)cc2Cl)=NO1 (racemic) [Compound 126] | 5 (Level 5: growth control rate is above 85%) | 5 (Level 5: growth control rate is above 85%) | 5 (Level 5: growth control rate is above 85%) | 5 (Level 5: growth control rate is above 85%) |  |  |  | 
2 | COC(=O)C1(F)CC(c2cc(-n3c(=O)cc(C(F)(F)F)n(C)c3=O)c(F)cc2Cl)=NO1 (racemic) [Compound 129] | 5 (Level 5: growth control rate is above 85%) | 5 (Level 5: growth control rate is above 85%) | 5 (Level 5: growth control rate is above 85%) | 5 (Level 5: growth control rate is above 85%) |  |  |  | 
3 | CCOC(=O)C1(CF)CC(c2cc(-n3c(=O)cc(C(F)(F)F)n(C)c3=O)c(F)cc2Cl)=NO1 (racemic) [Compound 132] | 5 (Level 5: growth control rate is above 85%) | 5 (Level 5: growth control rate is above 85%) | 5 (Level 5: growth control rate is above 85%) | 5 (Level 5: growth control rate is above 85%) |  |  |  | 
4 | CCOC(=O)C1(C(F)F)CC(c2cc(-n3c(=O)cc(C(F)(F)F)n(C)c3=O)c(F)cc2Cl)=NO1 (racemic) [Compound 134] | 5 (Level 5: growth control rate is above 85%) | 5 (Level 5: growth control rate is above 85%) | 5 (Level 5: growth control rate is above 85%) | 5 (Level 5: growth control rate is above 85%) |  |  |  | 
5 | CCOC(=O)C1(C(F)(F)F)CC(c2cc(-n3c(=O)cc(C(F)(F)F)n(C)c3=O)c(F)cc2Cl)=NO1 (racemic) [Compound 135] | 5 (Level 5: growth control rate is above 85%) | 5 (Level 5: growth control rate is above 85%) | 5 (Level 5: growth control rate is above 85%) | 5 (Level 5: growth control rate is above 85%) |  |  |  | 
6 | CCOC(=O)C1(CCF)CC(c2cc(-n3c(=O)cc(C(F)(F)F)n(C)c3=O)c(F)cc2Cl)=NO1 (racemic) [Compound 136] | 5 (Level 5: growth control rate is above 85%) | 5 (Level 5: growth control rate is above 85%) | 5 (Level 5: growth control rate is above 85%) | 5 (Level 5: growth control rate is above 85%) |  |  |  | 
7 | CCOC(=O)C1(CO)CC(c2cc(-n3c(=O)cc(C(F)(F)F)n(C)c3=O)c(F)cc2Cl)=NO1 (racemic) [Compound 142] | 5 (Level 5: growth control rate is above 85%) | 5 (Level 5: growth control rate is above 85%) | 5 (Level 5: growth control rate is above 85%) | 5 (Level 5: growth control rate is above 85%) |  |  |  | 
8 | CCOC(=O)C1(C=O)CC(c2cc(-n3c(=O)cc(C(F)(F)F)n(C)c3=O)c(F)cc2Cl)=NO1 (racemic) [Compound 152] | 5 (Level 5: growth control rate is above 85%) | 5 (Level 5: growth control rate is above 85%) | 5 (Level 5: growth control rate is above 85%) | 5 (Level 5: growth control rate is above 85%) |  |  |  | 
9 | CCOC(=O)C1(COC=O)CC(c2cc(-n3c(=O)cc(C(F)(F)F)n(C)c3=O)c(F)cc2Cl)=NO1 (racemic) [Compound 218] | 5 (Level 5: growth control rate is above 85%) | 5 (Level 5: growth control rate is above 85%) | 5 (Level 5: growth control rate is above 85%) | 5 (Level 5: growth control rate is above 85%) |  |  |  | 
10 | CCOC(=O)C1(COC(C)=O)CC(c2cc(-n3c(=O)cc(C(F)(F)F)n(C)c3=O)c(F)cc2Cl)=NO1 (racemic) [Compound 219] | 5 (Level 5: growth control rate is above 85%) | 5 (Level 5: growth control rate is above 85%) | 5 (Level 5: growth control rate is above 85%) | 5 (Level 5: growth control rate is above 85%) | 4 (Level 4: growth control rate is greater than or equal to 60% and less than 85%) |  |  | 
11 | CCOC(=O)C1(COC(=O)C(=O)O)CC(c2cc(-n3c(=O)cc(C(F)(F)F)n(C)c3=O)c(F)cc2Cl)=NO1 (racemic) [Compound 220] | 5 (Level 5: growth control rate is above 85%) | 5 (Level 5: growth control rate is above 85%) | 5 (Level 5: growth control rate is above 85%) | 5 (Level 5: growth control rate is above 85%) |  |  |  | 
12 | COC(=O)C1(OC)CC(c2cc(-n3c(=O)cc(C(F)(F)F)n(C)c3=O)c(F)cc2Cl)=NO1 (racemic) [Compound 226] | 5 (Level 5: growth control rate is above 85%) | 5 (Level 5: growth control rate is above 85%) | 5 (Level 5: growth control rate is above 85%) | 5 (Level 5: growth control rate is above 85%) |  |  |  | 
13 | CCOC(=O)C1(CC)CC(c2cc(-n3c(=S)cc(C(F)(F)F)n(C)c3=O)c(F)cc2Cl)=NO1 (racemic) [Compound 228] | 5 (Level 5: growth control rate is above 85%) | 5 (Level 5: growth control rate is above 85%) | 5 (Level 5: growth control rate is above 85%) | 5 (Level 5: growth control rate is above 85%) | 5 (Level 5: growth control rate is above 85%) | 5 (Level 5: growth control rate is above 85%) | 5 (Level 5: growth control rate is above 85%) | 4 (Level 4: growth control rate is greater than or equal to 60% and less than 85%)
14 | CCOC(=O)C1(CC)CC(c2cc(-n3c(=O)cc(C(F)(F)F)n(C)c3=S)c(F)cc2Cl)=NO1 (racemic) [Compound 229] | 5 (Level 5: growth control rate is above 85%) | 5 (Level 5: growth control rate is above 85%) | 5 (Level 5: growth control rate is above 85%) | 5 (Level 5: growth control rate is above 85%) |  |  |  | 
15 | CCOC(=O)C1(CC)CC(c2cc(-n3c(=S)cc(C(F)(F)F)n(C)c3=S)c(F)cc2Cl)=NO1 (racemic) [Compound 230] | 5 (Level 5: growth control rate is above 85%) | 5 (Level 5: growth control rate is above 85%) | 5 (Level 5: growth control rate is above 85%) | 5 (Level 5: growth control rate is above 85%) |  |  |  | 
